For assay [1], the target named is T1, human GIP receptor (Homo sapiens, UniProt P48546).
T1 construct: expressed in transfected cells; crude membranes
T1 sequence (P48546 22-466): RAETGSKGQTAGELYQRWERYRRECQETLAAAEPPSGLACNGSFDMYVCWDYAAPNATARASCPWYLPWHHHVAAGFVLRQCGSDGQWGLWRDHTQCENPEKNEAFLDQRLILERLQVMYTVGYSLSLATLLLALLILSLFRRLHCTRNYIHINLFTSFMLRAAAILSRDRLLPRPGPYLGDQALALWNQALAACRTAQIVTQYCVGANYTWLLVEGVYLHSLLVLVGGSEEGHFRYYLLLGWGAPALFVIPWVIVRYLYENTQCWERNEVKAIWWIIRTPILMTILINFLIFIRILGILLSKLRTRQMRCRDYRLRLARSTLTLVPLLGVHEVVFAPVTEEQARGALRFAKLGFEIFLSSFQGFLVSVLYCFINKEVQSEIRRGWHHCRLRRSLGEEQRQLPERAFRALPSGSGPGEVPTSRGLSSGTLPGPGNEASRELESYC
Put plainly: [125I]-GIP binding (SPA), human GIP receptor. As to conditions: read-out: hGIPR Ki, nM (SEM, n).

Assay [2] deals with human GLP-1R (Homo sapiens, UniProt P43220). The assay is described as follows: [125I]-GLP-1 binding (SPA), human GLP-1 receptor. The conditions noted are these: read-out: hGLP1R Ki, (nM) (SEM, n). Also on record: expressed in transfected cells; crude membranes. An outline of the steps:
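Frozen cell pellets are lysed on ice in hypotonic Tris buffer, pH 7.5, homogenized, and centrifuged to a membrane pellet resuspended at about 1 to 3 mg/mL. Binding is then measured in HEPES-based buffer at pH 7.4, and curves are fitted to give IC50 and Ki.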

In assay [3] the target is T2, gastric inhibitory peptide receptor (GIPR) (Homo sapiens, UniProt P48546).
T2 sequence (P48546 22-466): T1 sequence (P48546 22-466)
The assay is described as follows: cAMP pharmacological functional assay in presence of casein, hGIPR. It counts as cell-based. The conditions noted are these: HEK293 cells expressing hGIPR, 0.1% Casein, geometric mean; read-out: hGIPR cAMP Rel EC50 nM (SEM, n).

The target of assay [4] is T3, human Gcg receptor (Homo sapiens, UniProt P47871).
T3 construct: expressed in transfected cells; crude membranes
T3 sequence (P47871 26-477): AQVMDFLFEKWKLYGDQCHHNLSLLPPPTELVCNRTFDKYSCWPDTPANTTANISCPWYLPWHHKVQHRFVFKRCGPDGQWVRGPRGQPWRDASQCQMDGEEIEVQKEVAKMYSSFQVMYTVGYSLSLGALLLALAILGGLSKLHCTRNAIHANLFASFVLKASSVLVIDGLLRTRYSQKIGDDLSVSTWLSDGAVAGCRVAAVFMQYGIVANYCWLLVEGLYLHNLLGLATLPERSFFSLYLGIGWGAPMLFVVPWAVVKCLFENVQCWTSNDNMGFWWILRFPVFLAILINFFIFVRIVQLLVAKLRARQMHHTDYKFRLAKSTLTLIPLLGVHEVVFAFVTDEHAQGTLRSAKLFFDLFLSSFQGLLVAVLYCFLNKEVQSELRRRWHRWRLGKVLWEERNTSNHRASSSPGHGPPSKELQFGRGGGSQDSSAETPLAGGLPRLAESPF
Put plainly: [125I]-Glucagon binding (SPA), human Gcg receptor. As to conditions: read-out: hGLcgR Ki, nM (SEM, n). An outline of the steps: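 Cell pellets were lysed in hypotonic Tris buffer, pH 7.5, homogenized, and spun at low then high speed to give crude membranes. Ki was derived from the fitted IC50.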

Assay [5] deals with human GLP-1 receptor (GLP-1R) (Homo sapiens, UniProt P43220). Put plainly: cAMP pharmacological functional assay in presence of casein, hGLP-1R. The conditions noted are these: HEK293 cells expressing hGLP-1R, 0.1% Casein, geometric mean; read-out: hGLP1R cAMP Rel EC50 nM (SEM, n). The class given is cell-based.
Chain of human GLP-1 receptor (GLP-1R) (P43220 24-463): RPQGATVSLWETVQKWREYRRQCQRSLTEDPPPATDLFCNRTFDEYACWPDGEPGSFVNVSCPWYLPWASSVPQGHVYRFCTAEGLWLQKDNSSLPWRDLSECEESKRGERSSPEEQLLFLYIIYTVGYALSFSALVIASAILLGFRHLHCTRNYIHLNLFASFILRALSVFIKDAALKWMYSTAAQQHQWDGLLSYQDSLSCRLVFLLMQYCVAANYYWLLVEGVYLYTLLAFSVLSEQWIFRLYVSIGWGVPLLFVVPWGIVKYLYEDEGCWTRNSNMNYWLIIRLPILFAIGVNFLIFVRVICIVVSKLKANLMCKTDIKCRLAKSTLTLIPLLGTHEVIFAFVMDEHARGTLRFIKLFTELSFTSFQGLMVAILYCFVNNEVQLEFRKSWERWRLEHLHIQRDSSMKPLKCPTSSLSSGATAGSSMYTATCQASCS

Drawing on patent US12252524B2, “GIP/GLP1 co-agonist compounds” (Eli Lilly and Company, priority 2018, dated 2025), this text covers Ki and EC50 for six compounds.

Numbered stars: 1 amine (or outer) side, 2 acyl side, 3 side chain; on linkers, the order of the positions; unused ones are H or OH. Square brackets hold non-standard residues; d marks the D form. Side chains are listed from the residue outwards. Peptide text beside a SMILES is read from it. * marks the point of attachment. C20 diacid = O=C(O)CCCCCCCCCCCCCCCCCCC(=O)*; αMePhe(2-F) = C[C@](N)(Cc1ccccc1F)C(=O)O; γGlu = O=C(O)[C@H](CCC(=O)[*:2])N[*:1]; αMeF = C[C@](N)(Cc1ccccc1)C(=O)O; αMeL = CC(C)C[C@](C)(N)C(=O)O; AEEA = NCCOCCOCC(=O)O; Aib = CC(C)(N)C(=O)O

Chain of human GLP-1R (P43220 24-463): as above

`CC[C@H](C)[C@H](NC(=O)[C@H](CC(C)C)NC(=O)[C@H](Cc1ccc(O)cc1)NC(=O)[C@H](CCC(=O)O)NC(=O)[C@@H](NC(=O)[C@H](Cc1ccccc1)NC(=O)[C@H](C)NC(=O)C(C)(C)NC(=O)[C@H](CCC(N)=O)NC(=O)[C@H](C)NC(=O)[C@H](CCCCNC(=O)COCCOCCNC(=O)COCCOCCNC(=O)CC[C@H](NC(=O)CCCCCCCCCCCCCCCCCCC(=O)O)C(=O)O)NC(=O)[C@H](CCCCN)NC(=O)[C@H](CC(=O)O)NC(=O)[C@H](CC(C)C)NC(=O)[C@H](CC(C)C)NC(=O)[C@@H](NC(=O)[C@H](CO)NC(=O)[C@H](Cc1ccc(O)cc1)NC(=O)[C@H](CC(=O)O)NC(=O)[C@H](CO)NC(=O)[C@@H](NC(=O)[C@H](Cc1ccccc1)NC(=O)[C@@H](NC(=O)CNC(=O)CC[C@H](NC(=O)C(C)(C)NC(=O)[C@@H](N)Cc1ccc(O)cc1)C(=O)O)[C@@H](C)O)[C@@H](C)O)[C@@H](C)CC)[C@@H](C)CC)C(=O)N[C@@H](CCC(=O)O)C(=O)NCC(=O)NCC(=O)N1CCC[C@H]1C(=O)N[C@@H](CO)C(=O)N[C@@H](CO)C(=O)NCC(=O)N[C@@H](C)C(=O)N1CCC[C@H]1C(=O)N1CCC[C@H]1C(=O)N1CCC[C@H]1C(=O)N[C@@H](CO)C(N)=O` [Example 91]: the Ki – broadly, a dissociation constant, usually derived from enzyme kinetics or from competition with a known ligand – in assay [1] turned out to be 1.8 nM; in assay [2], 5.23 nM; in assay [4], 540 nM. In addition, the results for the EC50 in assay [3] and in assay [5] were 19.2 nM and greater than 5000 nM, respectively.
As for `CC[C@H](C)[C@H](NC(=O)[C@H](CCCCN)NC(=O)[C@H](CC(=O)O)NC(=O)[C@H](CCCCNC(=O)COCCOCCNC(=O)COCCOCCNC(=O)CC[C@H](NC(=O)CCCCCCCCCCCCCCCCCCC(=O)O)C(=O)O)NC(=O)[C@H](CC(C)C)NC(=O)[C@@H](NC(=O)[C@H](CO)NC(=O)[C@H](Cc1ccc(O)cc1)NC(=O)[C@H](CC(=O)O)NC(=O)[C@H](CO)NC(=O)[C@@H](NC(=O)[C@](C)(Cc1ccccc1)NC(=O)[C@@H](NC(=O)CNC(=O)[C@H](CCC(=O)O)NC(=O)C(C)(C)NC(=O)[C@@H](N)Cc1ccc(O)cc1)[C@@H](C)O)[C@@H](C)O)[C@@H](C)CC)C(=O)N[C@@H](C)C(=O)N[C@@H](CCC(N)=O)C(=O)NC(C)(C)C(=O)N[C@@H](C)C(=O)N[C@@H](Cc1ccccc1)C(=O)N[C@H](C(=O)N[C@@H](CCC(=O)O)C(=O)N[C@@H](Cc1ccc(O)cc1)C(=O)N[C@@H](CC(C)C)C(=O)N[C@H](C(=O)N[C@@H](CCC(=O)O)C(=O)NCC(=O)NCC(N)=O)[C@@H](C)CC)[C@@H](C)CC` [Example 93] (H-Y[Aib]EGT[αMeF]TSDYSILK([AEEA-AEEA-γGlu-C20 diacid])DKIAQ[Aib]AFIEYLIEGG-NH2), the Ki in assay [1] worked out at 0.0859 nM; in assay [2] it was 1.89 nM; in assay [4] it was 15.7 nM. The EC50 (as a rule, the concentration needed to bring the measured effect to its halfway point) in assay [3] was 0.185 nM; in assay [5], 0.115 nM.
For the compound `CC[C@H](C)[C@H](NC(=O)[C@H](CC(C)C)NC(=O)[C@H](Cc1ccc(O)cc1)NC(=O)[C@H](CCC(=O)O)NC(=O)[C@@H](NC(=O)[C@H](Cc1ccccc1)NC(=O)[C@H](C)NC(=O)C(C)(C)NC(=O)[C@H](CCC(N)=O)NC(=O)[C@H](C)NC(=O)[C@H](CCCCNC(=O)COCCOCCNC(=O)COCCOCCNC(=O)CC[C@H](NC(=O)CCCCCCCCCCCCCCCCCCC(=O)O)C(=O)O)NC(=O)[C@H](CCCCN)NC(=O)[C@H](CC(=O)O)NC(=O)[C@H](CC(C)C)NC(=O)[C@](C)(CC(C)C)NC(=O)[C@@H](NC(=O)[C@H](CO)NC(=O)[C@H](Cc1ccc(O)cc1)NC(=O)[C@H](CC(=O)O)NC(=O)[C@H](CO)NC(=O)[C@@H](NC(=O)[C@](C)(Cc1ccccc1)NC(=O)[C@@H](NC(=O)CNC(=O)[C@H](CCC(=O)O)NC(=O)C(C)(C)NC(=O)[C@@H](N)Cc1ccc(O)cc1)[C@@H](C)O)[C@@H](C)O)[C@@H](C)CC)[C@@H](C)CC)C(=O)N[C@@H](CCC(=O)O)C(=O)NCC(=O)NCC(N)=O` [Example 99] (H-Y[Aib]EGT[αMeF]TSDYSI[αMeL]LDKK([AEEA-AEEA-γGlu-C20 diacid])AQ[Aib]AFIEYLIEGG-NH2), the figures for the Ki in assay [1], in assay [2] and in assay [4] were 0.027 nM, 1.15 nM and 23.6 nM, respectively. The concentration giving a half-maximal response (EC50) came to 0.0643 nM in assay [3] and 0.0986 nM in assay [5].
The like results for `CC[C@H](C)[C@H](NC(=O)[C@H](CC(C)C)NC(=O)[C@H](Cc1ccc(O)cc1)NC(=O)[C@H](CCC(=O)O)NC(=O)[C@@H](NC(=O)[C@H](Cc1ccccc1)NC(=O)[C@H](C)NC(=O)C(C)(C)NC(=O)[C@H](CCC(N)=O)NC(=O)[C@H](C)NC(=O)[C@H](CCCCNC(=O)COCCOCCNC(=O)COCCOCCNC(=O)CC[C@H](NC(=O)CCCCCCCCCCCCCCCCCCC(=O)O)C(=O)O)NC(=O)[C@H](CCC(=O)O)NC(=O)[C@H](CC(=O)O)NC(=O)[C@H](CC(C)C)NC(=O)[C@](C)(CC(C)C)NC(=O)[C@@H](NC(=O)[C@H](CO)NC(=O)[C@H](Cc1ccc(O)cc1)NC(=O)[C@H](CC(=O)O)NC(=O)[C@H](CO)NC(=O)[C@@H](NC(=O)[C@](C)(Cc1ccccc1)NC(=O)[C@@H](NC(=O)CNC(=O)[C@H](CCC(=O)O)NC(=O)C(C)(C)NC(=O)[C@@H](N)Cc1ccc(O)cc1)[C@@H](C)O)[C@@H](C)O)[C@@H](C)CC)[C@@H](C)CC)C(=O)N[C@@H](CCC(=O)O)C(=O)NCC(=O)NCC(N)=O` [Example 100] (H-Y[Aib]EGT[αMeF]TSDYSI[αMeL]LDEK([AEEA-AEEA-γGlu-C20 diacid])AQ[Aib]AFIEYLIEGG-NH2; N-terminus assumed) were, in that order, 0.115 nM, 4.13 nM, 44 nM, 0.12 nM and 0.079 nM.
Taken in the same sequence, the figures for `CC[C@H](C)[C@H](NC(=O)[C@H](CC(C)C)NC(=O)[C@H](Cc1ccc(O)cc1)NC(=O)[C@H](CCC(=O)O)NC(=O)[C@@H](NC(=O)[C@H](Cc1ccccc1)NC(=O)[C@H](C)NC(=O)C(C)(C)NC(=O)[C@H](CCC(N)=O)NC(=O)[C@H](C)NC(=O)[C@H](CCCCNC(=O)COCCOCCNC(=O)COCCOCCNC(=O)CC[C@H](NC(=O)CCCCCCCCCCCCCCCCCCC(=O)O)C(=O)O)NC(=O)[C@H](CCC(=O)O)NC(=O)[C@H](CC(=O)O)NC(=O)[C@H](CC(C)C)NC(=O)C(C)(C)NC(=O)[C@@H](NC(=O)[C@H](CO)NC(=O)[C@H](Cc1ccc(O)cc1)NC(=O)[C@H](CC(=O)O)NC(=O)[C@H](CO)NC(=O)[C@@H](NC(=O)[C@](C)(Cc1ccccc1F)NC(=O)[C@@H](NC(=O)CNC(=O)[C@H](CCC(=O)O)NC(=O)C(C)(C)NC(=O)[C@@H](N)Cc1ccc(O)cc1)[C@@H](C)O)[C@@H](C)O)[C@@H](C)CC)[C@@H](C)CC)C(=O)N[C@@H](CCC(=O)O)C(=O)NCC(=O)NCC(N)=O` [Example 101] (H-Y[Aib]EGT[αMePhe(2-F)]TSDYSI[Aib]LDEK([AEEA-AEEA-γGlu-C20 diacid])AQ[Aib]AFIEYLIEGG-NH2) were 0.0953 nM, 8.1 nM, 117 nM, 0.0704 nM and 0.0579 nM.
The like results for `CC[C@H](C)[C@H](NC(=O)[C@H](CC(C)C)NC(=O)[C@H](Cc1ccc(O)cc1)NC(=O)[C@H](CCC(=O)O)NC(=O)[C@@H](NC(=O)[C@H](Cc1ccccc1)NC(=O)[C@H](CCC(=O)O)NC(=O)C(C)(C)NC(=O)[C@H](CCC(N)=O)NC(=O)[C@H](C)NC(=O)[C@H](CCCCNC(=O)COCCOCCNC(=O)COCCOCCNC(=O)CC[C@H](NC(=O)CCCCCCCCCCCCCCCCCCC(=O)O)C(=O)O)NC(=O)[C@H](CCC(=O)O)NC(=O)[C@H](CC(=O)O)NC(=O)[C@H](CC(C)C)NC(=O)[C@](C)(CC(C)C)NC(=O)[C@@H](NC(=O)[C@H](CO)NC(=O)[C@H](Cc1ccc(O)cc1)NC(=O)[C@H](CC(=O)O)NC(=O)[C@H](CO)NC(=O)[C@@H](NC(=O)[C@](C)(Cc1ccccc1F)NC(=O)[C@@H](NC(=O)CNC(=O)[C@H](CCC(=O)O)NC(=O)C(C)(C)NC(=O)[C@@H](N)Cc1ccc(O)cc1)[C@@H](C)O)[C@@H](C)O)[C@@H](C)CC)[C@@H](C)CC)C(=O)N[C@@H](CCC(=O)O)C(=O)NCC(=O)NCC(N)=O` [Example 103] (H-Y[Aib]EGT[αMePhe(2-F)]TSDYSI[αMeL]LDEK([AEEA-AEEA-γGlu-C20 diacid])AQ[Aib]EFIEYLIEGG-NH2; N-terminus assumed) were, in that order, 0.0645 nM, 6.68 nM, 40.3 nM, 0.0693 nM and 0.101 nM.
